Measurements reported in patent US20260317357A1, “HETEROCYCLIC COMPOUNDS AS STING AGONISTS” (LigaChem Biosciences Inc., priority 2022, published 2026).

Tests used:
[1] = In vitro cell cytotoxicity in CD34+ HSC (CellTiter-Glo); format: cell-based; settings: cd34+ hscs
Description: The CD34^+ hematopoietic stem cells (HSCs) were purchased from […]™ (#70002.3). The cells (2×10^4 cells per well) were cultured in StemSpan™ SFEM II medium supplemented with StemSpan™ CD34+ Expansion Supplement (#02691) in a 6-well plate at 37° C. for 7 days. On day 3 or 4, an equal volume of fresh complete medium was added into the cell culture. On day 7, the cells (4×10^4 cells per well) were seeded in a 96-well white plate and rested for 24 hours in the same condition.
After 72 hours, the cell viability was measured using CellTiter-Glo Luminescent Cell Viability Assay (Promega, #G7573) according to the manufacture's instruction. The signal was detected using an EnVision Xcite multilabel reader and data were analyzed using GraphPad Prism 8 software.

[2] = target: T1, hSTING-R232 (Homo sapiens, UniProt Q86WV6, H232R); test: STING agonist activity, THP1 Dual KI-hSTING-R232 IRF luciferase reporter cells; format: cell-based; settings: 24 hours
T1 construct: host or cells: THP1 Dual KI-hSTING-R232 (STING HAQ gene removed, R232 variant gene introduced)
T1 sequence (Q86WV6 whole entry H232R): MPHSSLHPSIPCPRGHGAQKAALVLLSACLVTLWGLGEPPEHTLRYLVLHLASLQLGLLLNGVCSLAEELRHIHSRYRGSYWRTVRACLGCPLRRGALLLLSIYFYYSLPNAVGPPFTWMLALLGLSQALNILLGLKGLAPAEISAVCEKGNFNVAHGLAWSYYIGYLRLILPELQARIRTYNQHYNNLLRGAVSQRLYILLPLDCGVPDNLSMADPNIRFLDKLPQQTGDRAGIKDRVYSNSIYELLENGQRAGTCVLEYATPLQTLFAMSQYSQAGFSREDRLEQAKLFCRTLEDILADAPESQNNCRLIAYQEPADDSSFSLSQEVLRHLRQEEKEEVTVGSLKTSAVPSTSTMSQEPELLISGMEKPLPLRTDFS
Description: (§1) In order to evaluate the activity of the STING agonist, reporter cells from Invivogen were used. The cell lines used in the experiment were THP1 Dual™ (InvivoGen #thpd-nfis) expressing the endogenous STING variant HAQ and THP1 Dual™ KI-hSTING-R232 (InvivoGen #thpd-r232/h232) into which the STING R232 or H232 variant gene was injected after removing the STING HAQ gene. The cell lines have a luciferase reporter gene inserted below the IFN regulatory factor (IRF) promoter, and thus the activity of the IFN regulatory factor (IRF) mechanism can be evaluated through luciferase expression.
(§2) The reporter cells were plated at 9.0×10^4 cells/100 μL per well in a 96-well plate using RPMI 1640 medium (Gibco, #22400097) supplemented with 10% heat-inactivated FBS and 1×Antibiotic-Antimycotic (Gibco, #15240062), 10 μg/mL blasticidin (Gibco, #A1113902), and 100 μg/mL Zeocin (Gibco, #R25005). The plated cells were cultured at 37° C., 5% CO2 for 24 hours, and then treated with 100 μL of the serially diluted compound in each well, and then cultured at 37° C., 5% CO2 for 24 hours. After culturing, 20 μL of the cell culture medium was transferred to a 96 well white plate, and QUANTI-Luc™ (InvivoGen #rep-qlcl) was added at 50 µL/well. Using a microplate reader (Perkin Elmer), the value of the luminescence signal increased in the experimental group treated with the drug compared to the control group not treated with the drug was calculated. EC50 values were derived according to the concentration of the compound using GraphPad Prism.

[3] = target: T2, hSTING-HAQ (Homo sapiens, UniProt Q86WV6, G230A/H232R/R293Q/R71H); test: STING agonist activity, THP1 Dual reporter cells expressing endogenous STING variant HAQ; format: cell-based; settings: IRF luciferase, 24 hours
T2 construct: expressing the endogenous STING variant HAQ; host or cells: THP1 Dual
T2 sequence (Q86WV6 whole entry R71H/G230A/H232R/R293Q): as the sequence (Q86WV6 whole entry H232R) above, with R71H, G230A, R293Q counted along it
Description: as §1, §2

[4] = In vitro cell cytotoxicity in PBMCs (CellTiter-Glo); format: cell-based
Description: PBMCs were also purchased from […]™ (#700025.2). The cells (8.0×10^4 cells per well) were seeded in a flat-bottomed 96-well plate in RPMI 1640 medium (Gibco, #22400097) with 10% heat-inactivated FBS and 1×Antibiotic-Antimycotic (Gibco, #15240062) and rested for 24 hours at 37° C. […] After 72 hours, the cell viability was measured using CellTiter-Glo Luminescent Cell Viability Assay (Promega, #G7573) according to the manufacture's instruction. The signal was detected using an EnVision Xcite multilabel reader and data were analyzed using GraphPad Prism 8 software.
To verify the effect of the STING agonist compounds in normal cell cytotoxicity, the PBMCs were treated with the STING agonist compounds for 3 days and measured the percentage of cell death.

[5] = target: T3, hSTING-H232 (Homo sapiens, UniProt Q86WV6); test: STING agonist activity, THP1 Dual reporter cells with STING H232 variant; format: cell-based; settings: IRF luciferase, 24 hours
T3 construct: host or cells: THP1 Dual KI-hSTING (STING HAQ gene removed, H232 variant gene introduced)
T3 sequence (Q86WV6 whole entry): as the sequence (Q86WV6 whole entry H232R) above, with R232H counted along it
Description: as §1, §2

[6] = target: T4, human STING (Homo sapiens, UniProt Q86WV6); test: Direct binding potency, HUMAN STING WT BINDING KIT (Cisbio); settings: in vitro
T4 construct: purchased Cisbio #64BDSTGPEG
T4 sequence (Q86WV6 whole entry): as the sequence (Q86WV6 whole entry H232R) above, with R232H counted along it
Excerpt: Additionally, or analysis of direct binding potency of STING agonist compounds described herein to human STING, HUMAN STING WT BINDING KIT (Cisbio, #64BDSTGPEG) was used according to the manufacturer's instruction.

[7] = Pharmacokinetics in Balb/C mouse after single IV dose; format: in vivo; settings: 1.5 mg/kg; for AUC(0-inf) / AUC(0-t) / C0 / Cmax / AUC∞, norm / Cmax, norm: n = 3, plasma; for AUC∞, norm / Cmax, norm: dose-normalized; for clearance / half-life / Vd: plasma; for clearance / half-life: n = 3; for Vd: n = 3, read-out: VSS
Description: For in vivo evaluation of STING agonist compounds described herein in naïve Balb/C mouse, single doses of STING agonist compounds were given at 1.5 mg/kg intravenously into female BALB/c mice (Orientbio, South Korea) at 6-8 weeks of age. Pharmacokinetics were studied following injection of the STING agonist compounds into Balb/C mice. Plasma samples were taken at various time points and stored frozen for analysis. The plasma concentrations of the STING agonist compounds at the indicated time points were measured using a LC-MS/MS analysis method.
Briefly, 250 μL of acetonitrile (ACN) solution was added in both 50 µL of sample and 50 µL of plasma containing 10 nM Dextromethorphan (internal standard), and the solutions were mixed vigorously using a vortex mixer for 5 minutes. The samples were then spun down at 14,000 rpm, 4° C. for 5 minutes. 100 μL of supernatants were combined with 100 μL of mobile phase A (0.1% formic acid in water with 5% ACN) and mixed thoroughly. The samples were measured for the STING agonist compounds using a LC-MS/MS (Nexera LC40 (SHIMADZU) and QTRAP4500 (SCIEX)).

EC50 [2] [nM] | EC50 [3] [nM] | EC50 [5] [nM] | EC50 [6] [nM] | AUC(0-inf) [7] [ng·h/mL] | AUC(0-t) [7] [ng·h/mL] | C0 [7] [ng/mL] | Cmax [7] [ng/mL] | AUC∞, norm [7] [kg·h/L] | Cmax, norm [7] [kg/L] | clearance [7] [mL/min/kg] | half-life [7] [min] | Vd [7] [L/kg] | Structure (SMILES) | CC50 at 72 h [1] [nM] | CC50 at 72 h [4] [nM]
3.37 | 15.5 | 9.5 | – | – | – | – | – | – | – | – | – | – | CCn1nc(C)cc1C(=O)Nc1nc2cc(C(N)=O)cc(OC)c2n1C/C=C/Cn1c(NC(=O)c2cc(C)nn2CC)nc2cc(C(N)=O)cc(OC/C=C/CN3CCNCC3=O)c21 [Compound 28] | 24.9 | 12.7
0.5 | 6.3 | 5.5 | 0.22 | 5160 ± 120 | 5110 ± 120 | 21100 ± 2210 | 14100 ± 590 | 3.44 ± 0.08 | 9.42 ± 0.39 | 4.83 | 72 ± 4.8 | 0.15 | CCn1nc(C)cc1C(=O)Nc1nc2cc(C(N)=O)cc(OC)c2n1C/C=C/Cn1c(NC(=O)c2cc(C)nn2CC)nc2cc(C(N)=O)cc(OC/C=C/Cn3cc(N)cn3)c21 [Compound 55] | 7.9 | 4
1.7 | 25.5 | 7 | 0.43 | 440 ± 440 | 430 ± 50 | 1300 ± 430 | 960 ± 170 | 0.29 ± 0.03 | 0.64 ± 0.11 | 57.5 | 28.2 ± 4.8 | 1.58 ± 0.13 | CCn1nc(C)cc1C(=O)Nc1nc2cc(C(N)=O)cc(OC/C=C/Cn3cc(N)cn3)c2n1C/C=C/Cn1c(NC(=O)c2cc(C)nn2CC)nc2cc(C(N)=O)cc(OCCCC(=O)O)c21 [Compound 65] | 3.9 | 18.5
